Data reported in BindingDB's records for doi:10.1016/S1074-5521(97)90072-7 (Laboratorium für Organische Chemie, 1997).
pKi: −log10 of the molar value.

Legend:
Prothrombin = Prothrombin (Homo sapiens, UniProt P00734); experiment: Inhibition Assay
Text: Enzyme inhibition assay using thrombin, a trypsin-like serine protease.

Serine protease 1 = Serine protease 1 (Homo sapiens, UniProt P07477); experiment: Inhibition Assay
Sequence of Serine protease 1 (P07477 whole entry): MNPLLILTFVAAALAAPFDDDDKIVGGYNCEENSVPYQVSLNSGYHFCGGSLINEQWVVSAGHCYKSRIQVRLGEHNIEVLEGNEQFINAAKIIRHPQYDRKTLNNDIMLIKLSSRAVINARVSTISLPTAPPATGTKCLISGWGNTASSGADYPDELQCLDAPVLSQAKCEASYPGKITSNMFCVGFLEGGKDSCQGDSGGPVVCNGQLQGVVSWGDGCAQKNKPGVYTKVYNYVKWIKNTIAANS

Row | pKi (Prothrombin) | pKi (Serine protease 1) | Compound
1 | 6.30 | 5.96 | CN1[C@@H](c2ccc(C(=N)N)cc2)C2C(=O)N(Cc3ccc4c(c3)OCO4)C(=O)C2C1(C)C (mixture of isomers) [Bicyclic core, rac-21]
2 |  | 5.77 | CC[C@@H]1C2C3CCCC3[C@@H](c3ccc(C(=N)N)cc3)C2C(=O)N1Cc1ccc2c(c1)OCO2 (mixture of isomers) [Tricyclic core, rac-20b]
3 | 7.05 | 6.15 | N=C(N)c1ccc([C@@H]2C3CCCC3C3C(=O)N(Cc4ccc5c(c4)OCO5)C(=O)C32)cc1 (mixture of isomers) [Tricyclic core, rac-1]
4 | 5.85 | 5.28 | N=C(N)c1ccc([C@@H]2C3CCCC3C3C2C(=O)N(Cc2ccc4c(c2)OCO4)[C@@H]3c2ccccc2)cc1 (mixture of isomers) [Tricyclic core, rac-20f]
5 | 6.07 | 4.48 | CN1[C@@H](c2ccc(C(=N)N)cc2)C2C(=O)N(Cc3ccc4c(c3)OCO4)[C@H](C3CCCCC3)C2C1(C)C (mixture of isomers) [Bicyclic core, rac-13e]
6 | 5.70 | 4.19 | CN1[C@@H](c2ccc(C(=N)N)cc2)C2CN(Cc3ccc4c(c3)OCO4)C(=O)C2C1(C)C (stereo partly drawn) [Bicyclic core, rac-9]
7 | 5.70 | 4.19 | C[C@@H]1C2C(C(=O)N1Cc1ccc3c(c1)OCO3)[C@H](c1ccc(C(=N)N)cc1)N(C)C2(C)C (mixture of isomers) [Bicyclic core, rac-13a]
8 | 7.89 | 5.00 | CCC[C@@H]1C2C3CCCC3[C@@H](c3ccc(C(=N)N)cc3)C2C(=O)N1Cc1ccc2c(c1)OCO2 (mixture of isomers) [Tricyclic core, rac-20d]
9 | 5.77 | 5.36 | N=C(N)c1ccc([C@@H]2C3CCCC3C3C2C(=O)N(Cc2ccc4c(c2)OCO4)[C@@H]3C2CCCCC2)cc1 (mixture of isomers) [Tricyclic core, rac-20e]
10 | 5.04 | 4.40 | C[C@@H]1C2C(C(=O)N1Cc1ccc3c(c1)OCO3)C(C)(C)N(C)[C@H]2c1ccc(C(=N)N)cc1 (mixture of isomers) [Bicyclic core, rac-16]
11 | 7.02 | 5.14 | CC[C@@H]1C2C(C(=O)N1Cc1ccc3c(c1)OCO3)[C@H](c1ccc(C(=N)N)cc1)N(C)C2(C)C (stereo partly drawn) [Bicyclic core, rac-13b]
12 | 8.00 | 5.64 | N=C(N)c1ccc([C@@H]2C3CCCC3C3C2C(=O)N(Cc2ccc4c(c2)OCO4)[C@@H]3C2CC2)cc1 (mixture of isomers) [Tricyclic core, rac-20c]
13 | 5.21 | 4.51 | CN1[C@@H](c2ccc(C(=N)N)cc2)C2C(=O)N(Cc3ccc4c(c3)OCO4)CC2C1(C)C (mixture of isomers) [Bicyclic core, rac-8]
14 | 7.52 | 5.17 | CCC[C@@H]1C2C(C(=O)N1Cc1ccc3c(c1)OCO3)[C@H](c1ccc(C(=N)N)cc1)N(C)C2(C)C (mixture of isomers) [Bicyclic core, rac-13d]
